Experimental data published in US20240246918A1, “COMPOUNDS AND COMPOSITIONS AS EIF4E INHIBITORS AND THE USES THEREOF” (Ribometrix, Inc., priority 2022, published 2024).
pIC50: −log10 of the molar value.

Key:
[1] = target: T1, human eIF4E protein (Homo sapiens, UniProt P06730); assay: Biochemical competitive binding assay (TR-FRET competition, EDA-m7GDP-ATTO-647N probe); settings: read-out: hEIF4E TR-FRET IC50
T1 construct: purchased Novus NBP-45314
Outline: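 His-tagged human eIF4E (4 nM) was preincubated with Eu-anti-His antibody (2.5 nM) and added to compound (11-point, 4-fold dilutions) for 15 min. Then 5 nM EDA-m7GDP-ATTO-647N was added for 15 min, in HEPES pH 7.5, 100 mM KCl. The 665/620 TR-FRET ratio was normalized to controls, and IC50 was taken from 4-parameter fits.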

[2] = test system: COLO 205 colorectal tumor cells; assay: Tumor cell viability inhibition assay (CellTiter-Glo 2.0, 72 hours); format: cell-based; settings: COLO 205 cell viability
Outline: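 COLO 205 cells (1500/well, RPMI-1640 + 10% FBS) exposed for 72 h to an 11-point, 4-fold dilution series; cellular ATP read by CellTiter-Glo 2.0 luminescence. Data normalized to DMSO and maximum-inhibition controls; IC50 from 4-parameter curve fit.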

T1 sequence (P06730 whole entry): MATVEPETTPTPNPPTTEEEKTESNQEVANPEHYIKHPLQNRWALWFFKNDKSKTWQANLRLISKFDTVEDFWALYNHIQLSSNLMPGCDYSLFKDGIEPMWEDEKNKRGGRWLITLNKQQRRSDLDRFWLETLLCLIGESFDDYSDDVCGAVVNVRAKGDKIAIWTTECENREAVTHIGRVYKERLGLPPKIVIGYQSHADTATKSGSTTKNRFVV

Row | pIC50 [1] | pIC50 ([2]; Homo sapiens, COLO 205, 72 h) | pIC50 [2] | SMILES
1 | > 7.00 | > 5.30 | – | Cc1cc(-c2cc(Cl)ccc2OCCn2c(C)nc3c(c2=O)C[C@H](N2CCC(c4nc5ccc(F)cc5s4)CC2)CC3)c2scc(C(=O)O)c2n1 (single isomer, unassigned) [Compound 593]
2 | > 7.00 | > 5.30 | – | Cc1cc(-c2cc(Cl)ccc2OCCn2c(C)nc3c(c2=O)C[C@@H](N2CCC(c4nc5ccc(F)cc5s4)CC2)CC3)c2scc(C(=O)O)c2n1 (single isomer, unassigned) [Compound 594]
3 | > 7.00 | > 5.30 | – | Cc1cc(-c2cc(Cl)ccc2OCCn2c(C)nc3c(c2=O)C[C@H](N2CCC(Oc4ccc(F)cc4F)CC2)CC3)c2scc(C(=O)O)c2n1 (single isomer, unassigned) [Compound 595]
4 | > 7.00 | > 5.30 | – | Cc1cc(-c2cc(Cl)ccc2OCCn2c(C)nc3c(c2=O)C[C@@H](N2CCC(Oc4ccc(F)cc4F)CC2)CC3)c2scc(C(=O)O)c2n1 (single isomer, unassigned) [Compound 596]
5 | > 7.00 | > 5.30 | – | Cc1cc(-c2cc(Cl)ccc2OCCn2c(C)nc3c(c2=O)C[C@H](N2CCC(OC(F)(F)F)CC2)[C@@H]2C[C@H]32)c2scc(C(=O)O)c2n1 (single isomer, unassigned) [Compound 597]
6 | > 7.00 | > 5.30 | – | Cc1cc(-c2cc(Cl)ccc2OCCn2c(C)nc3c(c2=O)C[C@@H](N2CCC(OC(F)(F)F)CC2)[C@H]2C[C@@H]32)c2scc(C(=O)O)c2n1 (single isomer, unassigned) [Compound 598]
7 | > 7.00 | 4.70 to 5.30 | – | Cc1cc(-c2cc(Cl)ccc2OCCn2c(C)nc3c(c2=O)CC(C)(N(C)CC2CC(F)(F)C2)CC3)c2scc(C(=O)O)c2n1 (single isomer, unassigned) [Compound 599]
8 | > 7.00 | – | > 5.30 | Cc1cc(-c2cc(Cl)ccc2OCCn2c(C)nc3c(c2=O)CC(C)(N(C)CC2CC(F)(F)C2)CC3)c2scc(C(=O)O)c2n1 (single isomer, unassigned) [Compound 600]
9 | > 7.00 | – | > 5.30 | Cc1nc2c(c(=O)n1CC#Cc1ccc(Cl)cc1-c1ccnc3c(C(=O)NS(C)(=O)=O)csc13)CC(N1CCC(OC(F)(F)F)CC1)CC2 (single isomer, unassigned) [Compound 601]
10 | > 7.00 | > 5.30 | – | Cc1cc(-c2cc(Cl)ccc2OCCn2c(C)nc3c(c2=O)C[C@H](N2CCC(C(F)(F)F)CC2)CC32CC2)c2scc(C(=O)O)c2n1 (single isomer, unassigned) [Compound 602]
11 | > 7.00 | > 5.30 | – | Cc1cc(-c2cc(Cl)ccc2OCCn2c(C)nc3c(c2=O)C[C@@H](N2CCC(C(F)(F)F)CC2)CC32CC2)c2scc(C(=O)O)c2n1 (single isomer, unassigned) [Compound 603]
12 | > 7.00 | > 5.30 | – | Cc1cc(-c2cc(Cl)ccc2OCCn2c(C)nc3c(c2=O)C[C@H](N2C[C@@H]4CC[C@H]2CC4OC(F)(F)F)CC32CC2)c2scc(C(=O)O)c2n1 (single isomer, unassigned) [Compound 604]
13 | > 7.00 | > 5.30 | – | Cc1cc(-c2cc(Cl)ccc2OCCn2c(C)nc3c(c2=O)C[C@@H](N2C[C@@H]4CC[C@H]2CC4OC(F)(F)F)CC32CC2)c2scc(C(=O)O)c2n1 (single isomer, unassigned) [Compound 605]
14 | > 7.00 | > 5.30 | – | Cc1cc(-c2cc(Cl)ccc2OCCn2c(C)nc3c(c2=O)C[C@H](N2C[C@H]4CC[C@@H]2CC4OC(F)(F)F)CC32CC2)c2scc(C(=O)O)c2n1 (single isomer, unassigned) [Compound 606]
15 | > 7.00 | > 5.30 | – | Cc1cc(-c2cc(Cl)ccc2OCCn2c(C)nc3c(c2=O)C[C@@H](N2C[C@H]4CC[C@@H]2CC4OC(F)(F)F)CC32CC2)c2scc(C(=O)O)c2n1 (single isomer, unassigned) [Compound 607]
16 | > 7.00 | – | > 5.30 | Cc1cc(-c2cc(Cl)ccc2C#CCn2c(C)nc3c(c2=O)CC(C)(N2CCCC4(C2)CC4(F)F)CC3)c2scc(C(=O)O)c2n1 (single isomer, unassigned) [Compound 608]
17 | > 7.00 | > 5.30 | – | Cc1cc(-c2cc(Cl)ccc2OCCn2c(C)nc3c(c2=O)C[C@@H](N2CCC[C@@H](C(F)F)C2)CC32CC2)c2scc(C(=O)O)c2n1 (single isomer, unassigned) [Compound 609]
18 | > 7.00 | > 5.30 | – | Cc1cc(-c2cc(Cl)ccc2OCCn2c(C)nc3c(c2=O)C[C@@H](N2CCC[C@H](C(F)F)C2)CC32CC2)c2scc(C(=O)O)c2n1 (single isomer, unassigned) [Compound 610]

Row | pIC50 [1] | pIC50 ([2]; Homo sapiens, COLO 205, 72 h) | pIC50 [2] | SMILES
19 | > 7.00 | > 5.30 | – | Cc1cc(-c2cc(Cl)ccc2OCCn2c(C)nc3c(c2=O)C[C@H](N2CCC(Oc4ccc(F)cc4F)CC2)CC32CC2)c2scc(C(=O)O)c2n1 (single isomer, unassigned) [Compound 611]
20 | 6.30 to 7.00 | – | 4.70 to 5.30 | Cc1cc(-c2cc(Cl)ccc2C#CCn2c(C)nc3c(c2=O)CC(C)(N2CCCC4(C2)CC4(F)F)CC3)c2scc(C(=O)O)c2n1 (single isomer, unassigned) [Compound 612]
21 | > 7.00 | > 5.30 | – | Cc1cc(-c2cc(Cl)ccc2OCCn2c(C)nc3c(c2=O)C[C@@H](N2CCC(Oc4ccc(F)cc4F)CC2)CC32CC2)c2scc(C(=O)O)c2n1 (single isomer, unassigned) [Compound 613]
22 | > 7.00 | – | > 5.30 | Cc1cc(-c2cc(Cl)ccc2C#CCn2c(C)nc3c(c2=O)CC(C)(N2CCCC4(C2)CC4(F)F)CC3)c2scc(C(=O)O)c2n1 (single isomer, unassigned) [Compound 614]
23 | 6.30 to 7.00 | – | < 4.70 | Cc1cc(-c2cc(Cl)ccc2C#CCn2c(C)nc3c(c2=O)CC(C)(N2CCCC4(C2)CC4(F)F)CC3)c2scc(C(=O)O)c2n1 (single isomer, unassigned) [Compound 615]
24 | > 7.00 | > 5.30 | – | Cc1cc(-c2cc(Cl)ccc2OCCn2c(C)nc3c(c2=O)C[C@H](N2CCC[C@@H](C(F)F)C2)CC32CC2)c2scc(C(=O)O)c2n1 (single isomer, unassigned) [Compound 616]
25 | > 7.00 | > 5.30 | – | Cc1cc(-c2cc(Cl)ccc2OCCn2c(C)nc3c(c2=O)C[C@H](N2CCC[C@H](C(F)F)C2)CC32CC2)c2scc(C(=O)O)c2n1 (single isomer, unassigned) [Compound 617]
26 | > 7.00 | > 5.30 | – | Cc1cc(-c2cc(Cl)ccc2OCCn2c(C)nc3c(c2=O)C[C@H](N2C[C@@H]4CC(F)(F)C[C@@H]4C2)CC32CC2)c2scc(C(=O)O)c2n1 (single isomer, unassigned) [Compound 618]
27 | > 7.00 | > 5.30 | – | Cc1cc(-c2cc(Cl)ccc2OCCn2c(C)nc3c(c2=O)C[C@@H](N2C[C@@H]4CC(F)(F)C[C@@H]4C2)CC32CC2)c2scc(C(=O)O)c2n1 (single isomer, unassigned) [Compound 619]
28 | > 7.00 | – | > 5.30 | Cc1cc(-c2cc(Cl)ccc2OCCn2c(C)nc3c(c2=O)CC(CN(C)C)(N2CCC(OC(F)(F)F)CC2)CC3)c2scc(C(=O)O)c2n1 (single isomer, unassigned) [Compound 620]
29 | 6.30 to 7.00 | – | < 4.70 | Cc1cc(-c2cc(Cl)ccc2OCCn2c(C)nc3c(c2=O)CC(CN(C)C)(N2CCC(OC(F)(F)F)CC2)CC3)c2scc(C(=O)O)c2n1 (single isomer, unassigned) [Compound 621]
30 | > 7.00 | < 4.70 | – | Cc1cc(-c2cc(Cl)ccc2OCCn2c(C)nc3c(c2=O)CC(CN)(N2CCC(OC(F)(F)F)CC2)CC3)c2scc(C(=O)O)c2n1 (single isomer, unassigned) [Compound 622]
31 | 6.30 to 7.00 | – | < 4.70 | Cc1cc(-c2cc(Cl)ccc2OCCn2c(C)nc3c(c2=O)CC(CN)(N2CCC(OC(F)(F)F)CC2)CC3)c2scc(C(=O)O)c2n1 (single isomer, unassigned) [Compound 623]
32 | 6.30 to 7.00 | 4.70 to 5.30 | – | Cc1cc(-c2cc(Cl)ccc2OCCn2c(C)nc3c(c2=O)C[C@H](N2CCCC[C@@H]2C(F)(F)F)CC32CC2)c2scc(C(=O)O)c2n1 (single isomer, unassigned) [Compound 624]
33 | 6.30 to 7.00 | 4.70 to 5.30 | – | Cc1cc(-c2cc(Cl)ccc2OCCn2c(C)nc3c(c2=O)C[C@@H](N2CCCC(C)[C@@H]2C(F)(F)F)CC32CC2)c2scc(C(=O)O)c2n1 (single isomer, unassigned) [Compound 625]
34 | > 7.00 | 4.70 to 5.30 | – | Cc1cc(-c2cc(Cl)ccc2OCCn2c(C)nc3c(c2=O)C[C@H](N2CCCC[C@H]2c2cccc(F)c2)CC32CC2)c2scc(C(=O)O)c2n1 (single isomer, unassigned) [Compound 626, 7-(5-chloro-2-(2-(6′-(2-(3-fluorophenyl)piperidin-1-yl)-2′-methyl-4′-oxo-6′,7′-dihydro-4′H-spiro[cyclopropane-1,8′-quinazolin]-3′(5′H)-yl)ethoxy)phenyl)-5-methylthieno[3,2-b]pyridine-3-carboxylic acid]
35 | 5.30 to 6.30 | < 4.70 | – | Cc1cc(-c2cc(Cl)ccc2OCCn2c(C(F)(F)F)nc3c(c2=O)CC(N2CCC(OC(F)(F)F)CC2)CC3)c2scc(C(=O)O)c2n1 (single isomer, unassigned) [Compound 627]
